According to patent US20140073634A1 (Institute For Applied Cancer Science/The University of …, priority 2012, published 2014):

System: 293T-HRE-GFP-luc cells
Assay: Cell-based reporter assay for IC50 determinations (HRE-luciferase, hypoxia)
Details: 6 h, 6 hrs hypoxia (1% O2), luminescence
How it was run: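 293T-HRE-GFP-luc cells were pre-incubated with serially diluted compounds for 30 min under normoxia, then held 6 hrs in hypoxia (1% O2, 37° C). HRE-driven luciferase read by Steadylite Plus luminescence; IC50 from four-parameter logistic fit.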

| Compound | IC50 [nM] |
| --- | --- |
| CS(=O)(=O)C1CCN(c2cc(Cn3nc(-c4nc(-c5ccc(OC(F)(F)F)cc5)no4)ccc3=O)ccn2)CC1 [Example 184, 2-{[2-(4-methanesulfonylpiperidin-1-yl)pyridin-4-yl]methyl}-6-{3-[4-(trifluoromethoxy)phenyl]-1,2,4-oxadiazol-5-yl}-2,3-dihydropyridazin-3-one] | < 100 |
| CN1CCN(c2cccc(Cn3cc(-c4nc(-c5ccc(SC(F)(F)F)cc5)no4)ccc3=O)c2)CC1 [Example 185, 1-{[3-(4-methylpiperazin-1-yl)phenyl]methyl}-5-(3-{4-[(trifluoromethyl)sulfanyl]phenyl}-oxadiazol-5-yl)-1,2-dihydropyridin-2-one] | < 100 |
| CN1CCN(c2cccc(Cn3cc(-c4noc(-c5ccc(S(C)(=O)=O)cc5)n4)ccc3=O)c2)CC1 [Example 186, 5-[5-(4-methanesulfonylphenyl)-1,2,4-oxadiazol-3-yl]-1-{[3-(4-methylpiperazin-1-yl)phenyl]methyl}-1,2-dihydropyridin-2-one] | < 100 |
| COCCOc1cccc(Cn2cc(-c3noc(-c4ccc(S(=O)(=O)C(F)(F)F)cc4)n3)ccc2=O)c1 [Example 187, 1-{[3-(2-methoxyethoxy)phenyl]methyl}-5-[5-(4-trifluoromethanesulfonylphenyl)-1,2,4-oxadiazol-3-yl]-1,2-dihydropyridin-2-one] | < 100 |
| CN1CCN(c2cccc(Cn3cc(-c4noc(-c5ccc(S(=O)(=O)C(F)(F)F)cc5)n4)ccc3=O)c2)CC1 [Example 188, 1-{[3-(4-methylpiperazin-1-yl)phenyl]methyl}-5-[5-(4-trifluoromethanesulfonylphenyl)-1,2,4-oxadiazol-3-yl]-1,2-dihydropyridin-2-one] | < 100 |
| CN1CCN(c2cccc(Cn3cc(-c4noc(-c5ccc(OC(F)F)cc5)n4)ccc3=O)c2)CC1 [Example 189, 5-{5-[4-(difluoromethoxy)phenyl]-1,2,4-oxadiazol-3-yl}-1-{[3-(4-methylpiperazin-1-yl)phenyl]methyl}-1,2-dihydropyridin-2-one] | < 100 |
| COCCOc1cccc(Cn2cc(-c3noc(-c4ccc(N5CCOC5=O)cc4)n3)ccc2=O)c1 [Example 190, 1-{[3-(2-methoxyethoxy)phenyl]methyl}-5-{5-[4-(2-oxo-1,3-oxazolidin-3-yl)phenyl]-1,2,4-oxadiazol-3-yl}-1,2-dihydropyridin-2-one] | < 100 |
| COCCOc1cccc(Cn2cc(-c3noc(-c4ccc(OC)cc4)n3)ccc2=O)c1 [Example 191, 1-{[3-(2-methoxyethoxy)phenyl]methyl}-5-[5-(4-methoxyphenyl)-1,2,4-oxadiazol-3-yl]-1,2-dihydropyridin-2-one] | < 100 |
| COCCOc1cccc(Cn2cc(-c3noc(-c4ccc(C)cc4)n3)ccc2=O)c1 [Example 192, 1-{[3-(2-methoxyethoxy)phenyl]methyl}-5-[5-(4-methylphenyl)-1,2,4-oxadiazol-3-yl]-1,2-dihydropyridin-2-one] | < 100 |
| COCCOc1cccc(Cn2cc(-c3noc(-c4ccc(C(F)(F)F)cc4)n3)ccc2=O)c1 [Example 193, 1-{[3-(2-methoxyethoxy)phenyl]methyl}-5-{5-[4-(trifluoromethyl)phenyl]-1,2,4-oxadiazol-3-yl}-1,2-dihydropyridin-2-one] | < 100 |
| COCCOc1cccc(Cn2cc(-c3noc(-c4ccc(C#N)cc4)n3)ccc2=O)c1 [Example 194, 4-[3-(1-{[3-(2-methoxyethoxy)phenyl]methyl}-6-oxo-1,6-dihydropyridin-3-yl)-1,2,4-oxadiazol-5-yl]benzonitrile] | < 100 |
| COCCOc1cccc(Cn2cc(-c3noc(-c4ccc(C(C)C)cc4)n3)ccc2=O)c1 [Example 195, 1-{[3-(2-methoxyethoxy)phenyl]methyl}-5-{5-[4-(propan-2-yl)phenyl]-1,2,4-oxadiazol-3-yl}-1,2-dihydropyridin-2-one] | < 100 |
| COCCOc1cccc(Cn2cc(-c3noc(-c4ccc(OC(C)C)cc4)n3)ccc2=O)c1 [Example 196, 1-{[3-(2-methoxyethoxy)phenyl]methyl}-5-{5-[4-(propan-2-yloxy)phenyl]-1,2,4-oxadiazol-3-yl}-1,2-dihydropyridin-2-one] | 100 to 1000 |
| COCCOc1cccc(Cn2cc(-c3noc(-c4ccc(OC(F)F)cc4)n3)ccc2=O)c1 [Example 197, 5-{5-[4-(difluoromethoxy)phenyl]-1,2,4-oxadiazol-3-yl}-1-{[3-(2-methoxyethoxy)phenyl]methyl}-1,2-dihydropyridin-2-one] | < 100 |
| COCCOc1cccc(Cn2cc(-c3noc(-c4ccc(Cl)cc4)n3)ccc2=O)c1 [Example 198, 5-[5-(4-chlorophenyl)-1,2,4-oxadiazol-3-yl]-1-{[3-(2-methoxyethoxy)phenyl]methyl}-1,2-dihydropyridin-2-one] | < 100 |
| CNS(=O)(=O)c1ccc(-c2nc(-c3ccc(=O)n(Cc4cccc(OCCOC)c4)c3)no2)cc1 [Example 199, 4-[3-(1-{[3-(2-methoxyethoxy)phenyl]methyl}-6-oxo-1,6-dihydropyridin-3-yl)-1,2,4-oxadiazol-5-yl]-N-methylbenzene-1-sulfonamide] | 100 to 1000 |
| COCCOc1cccc(Cn2cc(-c3noc(-c4ccc(N5CCOCC5)cc4)n3)ccc2=O)c1 [Example 200, 1-{[3-(2-methoxyethoxy)phenyl]methyl}-5-{5-[4-(morpholin-4-yl)phenyl]-1,2,4-oxadiazol-3-yl}-1,2-dihydropyridin-2-one] | < 100 |
| COCCOc1cccc(Cn2cc(-c3noc(-c4ccc(CC#N)cc4)n3)ccc2=O)c1 [Example 201, 2-{4-[3-(1-{[3-(2-methoxyethoxy)phenyl]methyl}-6-oxo-1,6-dihydropyridin-3-yl)-1,2,4-oxadiazol-5-yl]phenyl}acetonitrile] | < 100 |
| COCCOc1cccc(Cn2cc(-c3noc(-c4ccc(S(C)(=O)=O)cc4)n3)ccc2=O)c1 [Example 202, 5-[5-(4-methanesulfonylphenyl)-1,2,4-oxadiazol-3-yl]-1-{[3-(2-methoxyethoxy)phenyl]methyl}-1,2-dihydropyridin-2-one] | 100 to 1000 |
| COCCOc1cccc(Cn2cc(-c3noc(-c4ccc(OCC(F)(F)F)cc4)n3)ccc2=O)c1 [Example 203, 1-{[3-(2-methoxyethoxy)phenyl]methyl}-5-{5-[4-(2,2,2-trifluoroethoxy)phenyl]-1,2,4-oxadiazol-3-yl}-1,2-dihydropyridin-2-one] | < 100 |
| CS(=O)(=O)CCCOc1cccc(Cn2cc(-c3noc(-c4ccc(N5CCOCC5)cc4)n3)ccc2=O)c1 [Example 204, 1-{[3-(3-methanesulfonylpropoxy)phenyl]methyl}-5-{5-[4-(morpholin-4-yl)phenyl]-1,2,4-oxadiazol-3-yl}-1,2-dihydropyridin-2-one] | < 100 |
| CS(=O)(=O)CCCOc1cccc(Cn2cc(-c3noc(-c4ccc(S(C)(=O)=O)cc4)n3)ccc2=O)c1 [Example 205, 5-[5-(4-methanesulfonylphenyl)-1,2,4-oxadiazol-3-yl]-1-{[3-(3-methanesulfonylpropoxy)phenyl]methyl}-1,2-dihydropyridin-2-one] | < 100 |
| CC(C)Oc1ccc(-c2nc(-c3ccc(=O)n(Cc4cccc(OCCCS(C)(=O)=O)c4)c3)no2)cc1 [Example 206, 1-{[3-(3-methanesulfonylpropoxy)phenyl]methyl}-5-{5-[4-(propan-2-yloxy)phenyl]-1,2,4-oxadiazol-3-yl}-1,2-dihydropyridin-2-one] | < 100 |
